Test results: patent US20070219159A1, “CYCLODEXTRIN COMPOSITIONS AND METHODS OF TREATING VIRAL INFECTIONS” (priority 2002, published 2007)
Where two headings read alike, the source gives them in different places.

Experiments:
[1] = tested on: Flu B
[2] = tested on: HHV-7
[3] = tested on: Rhino
[4] = tested on: HCMV
[5] = tested on: Pichinde
[6] = tested on: HSV-2 strain MS; assay: CPE reduction assay in Vero cells, HSV-2; format: cell-based; conditions: HSV-2; final concentrations up to 8 mg/ml
[7] = tested on: RSV
[8] = tested on: Yellow fever
[9] = tested on: Cowpox
[10] = tested on: VEE
[11] = tested on: Vaccinia
[12] = tested on: MV
[13] = tested on: Ad
[14] = tested on: HCV; assay: In vitro anti-HCV assay in HCV RNA-replicating cell line AVA5; format: cell-based; conditions: HCV
Description: (§1) The antiviral activity of test compounds were assayed in the stably HCV RNA-replicating cell line. AVA5, derived by transfection of the human hepatoblastoma cell line, Huh^7 (Blight et al., 2000). Experimental drugs were added to dividing cultures once daily for three days. Media was changed with each addition of compound. Cultures generally started the assays at 50% confluence and reached confluence during the last day of treatment. HCV RNA and cellular β-actin RNA levels were assessed 24 hours after the last dose of compound using dot blot hybridization. Assays were conducted using a single dose of test compound (in triplicate cultures).
(§2) Both HCV and β-actin RNA levels in the treated cultures were expressed as a percentage of the mean levels of RNA detected in untreated cultures. β-actin RNA levels were used both as a measure of toxicity, and to normalize the amount of cellular RNA in each sample. A level of 30% or less HCV RNA (relative to control cultures) was considered to be a positive antiviral effect, and a level of 50% or less β-actin RNA (relative to control cultures) is considered to be a cytotoxic effect.
(§3) Dividing cultures of AVAB cells were treated once daily for three days (media was changed with each addition of compound) with 4 concentrations of test compounds (3 cultures per concentration). A total of 6 untreated control cultures, and triplicate cultures treated with 10, 3, and 1 IU/ml α-interferon (active antiviral with no cytotoxicity), and 100, 10, and 1 μM ribavir ([…]) served as controls. HCV RNA and cellular β-actin FNA levels were assessed 24 hours after the last dose of compound using dot blot hybridization. β-actin RNA levels were used to normalize the amount of cellular RNA in each sample.
(§4) Toxicity analyses were performed on separate plates from those used for the antiviral assays. Cells for the toxicity analyses were cultured and treated with test compounds with the same schedule and under identical culture conditions used for the antiviral evaluations. Each compound was tested at 4 concentrations, each in triplicate cultures. Uptake of neutral red dye was used to determine the relative level of toxicity 24 hours following the last treatment. The absorbance of internalized dye at […] (A510) was used for the quantitative analysis. Values in test cultures were compared to 9 cultures of untreated cells maintained on the same plate as the test cultures.
(§5) Assays similar to those described above were conducted.

[15] = tested on: HRV
[16] = tested on: HSV-1 strain KOS1.1; assay: CPE reduction assay in Vero cells, HSV-1; format: cell-based; conditions: HSV-1; final concentrations up to 8 mg/ml
[17] = tested on: Flu A
[18] = tested on: West Nile; assay: In vitro antiviral screening (Table 1), West Nile
[19] = tested on: EBV
[20] = tested on: MCMV
[21] = tested on: VZV
[22] = tested on: Resp syncytial
[23] = tested on: PIV
[24] = tested on: HHV-6
[25] = tested on: HSV-1; conditions: in general 1000-fold less drug than Examples 1-6 and 10
[26] = tested on: Measles
[27] = tested on: HSV-2; conditions: in general 1000-fold less drug than Examples 1-6 and 10
[28] = tested on: Punta Toro
[29] = In vitro anti-HCV assay in HCV RNA-replicating cell line AVA5; format: cell-based; conditions: human, AVA5 cells (HCV RNA-replicating Huh7 line); toxicity control, no antiviral activity; read-out: approximate CC90
Description: as §1, §2, §3, §4, §5

[30] = tested on: vaccinia Western Reserve strain (WR); format: cell-based
[31] = tested on: Vero cells; conditions: 48 hours exposure; extrapolated from cell killing graph (FIG. 5)
[32] = HSV-infected cells; cited from earlier work

OC[C@H]1O[C@@H]2O[C@H]3[C@H](O)[C@@H](O)[C@@H](O[C@H]4[C@H](O)[C@@H](O)[C@@H](O[C@H]5[C@H](O)[C@@H](O)[C@@H](O[C@H]6[C@H](O)[C@@H](O)[C@@H](O[C@H]7[C@H](O)[C@@H](O)[C@@H](O[C@H]1[C@H](O)[C@H]2O)O[C@@H]7CO)O[C@@H]6CO)O[C@@H]5CO)O[C@@H]4CO)O[C@@H]3CO [ACD, α-cyclodextrin]
SI = CC50/EC50 [1]: 0 | SI = CC50/EC50 [2]: 0 | SI = CC50/EC50 [3]: 0 | SI = CC50/EC50 [4]: 0 | SI = CC50/EC50 [5]: 0 | antiviral activity in infected Vero cells [6]: no significant antiviral activity | SI = CC50/EC50 [7]: 0 | SI = CC50/EC50 [8]: 0 | SI = CC50/EC50 [9]: 0 | SI = CC50/EC50 [10]: 0 | SI = CC50/EC50 [11]: 0 | SI = CC50/EC50 [12]: 0 | SI = CC50/EC50 [13]: 0 | S.I. for HCV [14]: 0.72 | SI = CC50/EC50 [15]: 0 | antiviral activity in infected Vero cells [16]: no significant antiviral activity | SI = CC50/EC50 [17]: 0 | SI = CC50/EC50 [18]: 0 | SI = CC50/EC50 [19]: >1.5 | SI = CC50/EC50 [20]: 0 | SI = CC50/EC50 [21]: 0 | SI = CC50/EC50 [22]: 0 | SI = CC50/EC50 [23]: 0 | SI = CC50/EC50 [24]: 0 | SI = CC50/EC50 [25]: 0 | SI = CC50/EC50 [26]: 0 | SI = CC50/EC50 [27]: 0 | SI = CC50/EC50 [28]: 0

NC(=O)c1ncn([C@@H]2O[C@H](CO)[C@@H](O)[C@H]2O)n1 [ribavirin, reference compound]
CC90 at 3 days [29]: ~100 µM

methyl-β-cyclodextrin [MBCD]
SI = CC50/EC50 [5]: 0 | SI = CC50/EC50 [10]: 0 | SI = CC50/EC50 [12]: 0 | S.I. for HCV [14]: 1.69 | SI = CC50/EC50 ([17]; Flu A): 0 | SI = CC50/EC50 [18]: 0 (?) | anti-vaccinia virus activity (cytopathic effect versus untreated wells) ([30]; MBCD 4 to 4.5 mg/ml, β-CD 7.2 mg/ml, pre- and post-infection, 48 hours): much fewer and smaller areas of cytopathic effect | concentration at which anti-vaccinia virus activity was observed ([30]; flat portion of the cell killing curve): < 4.5 mg/mL | CC50 at 48 hours for Vero cells [31]: approximately 5.5 mg/ml | SI = CC50/EC50 ([28]; Punta Toro): 0

penciclovir triphosphate
intracellular half life [32]: 12 h
